Results as given in patent US10173991B2, “Sulfone amide linked benzothiazole inhibitors of endothelial lipase” (BRISTOL-MYERS SQUIBB COMPANY, priority 2014, dated 2019).
Like-named read-outs stand apart in the source and are kept apart here.

Target: Endothelial lipase (EL) (Homo sapiens (Human), UniProt Q9Y5X9)
Assay: Endothelial lipase (EL) enzymatic assay with fluorescent substrate A10070 in DMPG vesicles
Type: biochemical
Summary of the method: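 Vesicles prepared: A10070 dried with DMPG, resuspended in HEPES pH 8.0/NaCl/EDTA, sonicated on ice. Enzyme incubated with compound 30 min at 37° C. Reaction started with 1:10 diluted vesicles. Fluorescence (490/530 nm) followed 60 min; slope from 300–900 secs gives rate.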

Chain of Endothelial lipase (EL) (Q9Y5X9 21-500): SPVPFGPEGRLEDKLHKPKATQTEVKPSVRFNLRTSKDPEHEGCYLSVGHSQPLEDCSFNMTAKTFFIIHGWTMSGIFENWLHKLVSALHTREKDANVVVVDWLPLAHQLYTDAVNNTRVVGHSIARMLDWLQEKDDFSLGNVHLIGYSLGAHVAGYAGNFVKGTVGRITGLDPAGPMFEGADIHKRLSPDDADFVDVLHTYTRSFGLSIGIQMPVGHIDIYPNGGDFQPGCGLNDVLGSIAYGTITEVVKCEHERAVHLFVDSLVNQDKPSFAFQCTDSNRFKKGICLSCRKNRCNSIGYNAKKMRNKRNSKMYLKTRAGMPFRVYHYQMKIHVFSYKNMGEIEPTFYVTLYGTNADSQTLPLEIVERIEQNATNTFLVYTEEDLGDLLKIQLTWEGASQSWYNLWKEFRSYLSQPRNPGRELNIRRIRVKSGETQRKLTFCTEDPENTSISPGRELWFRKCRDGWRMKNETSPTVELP

IC50	IC50 (EL from conditioned media of HT-1080 cells, 30 min preincubation at 37° C.)	Compound
0.012 µM		O=C(CNC(=O)C(c1nc2cc(-c3cncnc3)ccc2s1)S(=O)(=O)c1ccccc1)NC1CC1 (stereo not shown) [Example 435, 2-(benzenesulfonyl)-N-[(cyclopropyl-carbamoyl)methyl]-2-[5-(pyrimidin-5-yl)-1,3-benzothiazol-2-yl]acetamide]
0.008 µM		CN(C)S(=O)(=O)C(C(=O)NCC(=O)NC1CC1)c1nc2c(F)cc(-c3ccccc3)cc2s1 (stereo not shown) [Example 501, N-[(cyclopropyl-carbamoyl)methyl]-2-(dimethyl-sulfamoyl)-2-(4-fluoro-6-phenyl-1,3-benzothiazol-2-yl)acetamide]
0.002 µM		CN(C)S(=O)(=O)C(C(=O)NCC(=O)NC1CC1)c1nc2c(F)cc(-c3ccc(NC(=O)OCc4ccccc4)cc3)cc2s1 (stereo not shown) [Example 495, benzyl N-{4-[2-({[(cyclopropyl-carbamoyl)methyl]carbamoyl} (dimethyl-sulfamoyl)methyl)-4-fluoro-1,3-benzothiazol-6-yl]phenyl}carbamate]
0.012 µM		COCCS(=O)(=O)C(C(=O)NCC(=O)NC1CC1)c1nc2cc(F)c(-c3cccc(N(C)C(=O)OC)c3)cc2s1 (stereo not shown) [Example 548, methyl N-{3-[2-({[(cyclopropyl-carbamoyl)methyl]carbamoyl}(2-methoxyethane-sulfonyl)methyl)-5-fluoro-1,3-benzothiazol-6-yl]phenyl}-N-methylcarbamate]
	0.006 µM	CS(=O)(=O)C(C(=O)NCC(=O)NC1CC1)c1nc2cc(F)c(-c3ccc(-n4ccnc4)cc3)cc2s1 (stereo not shown) [Example 579, N-[(Cyclopropylcarbamoyl)methyl]-2-{5-fluoro-6-[4-(1H-imidazol-1-yl)phenyl]-1,3-benzothiazol-2-yl}-2-methanesulfonylacetamide]
0.012 µM		COCCS(=O)(=O)C(C(=O)NCC(=O)NC1CC1)c1nc2cc(C(=O)OC(C)(C)C)c(F)cc2s1 (stereo not shown) [Example 428, tert-butyl 2-({[(cyclopropyl-carbamoyl)methyl]carbamoyl}(2-methoxyethane-sulfonyl)methyl)-6-fluoro-1,3-benzothiazole-5-carboxylate]
0.001 µM		CN(C)S(=O)(=O)C(C(=O)NCC(=O)NC1CC1)c1nc2c(F)cc(-c3ccc4c(=O)n(C)ccc4c3)cc2s1 (stereo not shown) [Example 493, N-[(cyclopropyl-carbamoyl)methyl]-2-(dimethyl-sulfamoyl)-2-[4-fluoro-6-(2-methyl-1-oxo-1,2-dihydro-isoquinolin-6-yl)-1,3-benzothiazol-2-yl]acetamide]
0.025 µM		CS(=O)(=O)C(C(=O)NCC(=O)NC1CC1)c1nc2cc(-c3cccnc3F)c(F)cc2s1 (stereo not shown) [Example 367, N-[(cyclopropyl-carbamoyl)methyl]-2-[6-fluoro-5-(2-fluoropyridin-3-yl)-1,3-benzothiazol-2-yl]-2-methanesulfonyl-acetamide]
0.003 µM		COCCS(=O)(=O)C(C(=O)NCC(=O)NC1CC1)c1nc2cc(F)c(-c3ccc(C(=O)NCCc4ccccc4)cc3)cc2s1 (stereo not shown) [Example 573, 4-[2-({[(cyclopropyl-carbamoyl)methyl]carbamoyl}(2-methoxyethane-sulfonyl)methyl)-5-fluoro-1,3-benzothiazol-6-yl]-N-(2-phenylethyl) benzamide]
0.002 µM		COCCOC(=O)Nc1ccc(-c2cc3sc(C(C(=O)NCC(=O)NC4CC4)S(=O)(=O)C4CC4)nc3cc2F)cc1 (stereo not shown) [Example 536, 2-methoxyethyl N-(4-{2-[(cyclopropane-sulfonyl) ({[(cyclopropyl-carbamoyl)methyl]carbamoyl})methyl]-5-fluoro-1,3-benzothiazol-6-yl}phenyl) carbamate]
0.008 µM		COCCS(=O)(=O)C(C(=O)NCC(=O)NC1CC1)c1nc2ccc(-c3ccc(C(=O)N4CC[C@H](OC)C4)cc3)cc2s1 (stereo partly drawn) [Example 403, N-[(cyclopropyl-carbamoyl)methyl]-2-(2-methoxyethane-sulfonyl)-2-(6-{4-[(3S)-3-methoxy-pyrrolidine-1-carbonyl]phenyl}-1,3-benzothiazol-2-yl)acetamide]
0.006 µM		O=C(CNC(=O)C(c1nc2cc(F)c(-c3ccc(NC(=O)OCc4nccs4)cc3)cc2s1)S(=O)(=O)CCC(F)(F)F)NC1CC1 (stereo not shown) [Example 523, 1,3-thiazol-2-ylmethyl N-{4-[2-({[(cyclopropyl-carbamoyl)methyl]carbamoyl}(3,3,3-trifluoropropane-sulfonyl)methyl)-5-fluoro-1,3-benzothiazol-6-yl]phenyl} carbamate]

The next lines start with the compound.

Compound	IC50	IC50 (EL from conditioned media of HT-1080 cells, 30 min preincubation at 37° C.)
propan-2-yl N-{4- [2-({[(cyclopropyl- carbamoyl)methyl] carbamoyl}(2- methoxyethane- sulfonyl)methyl)- 5-fluoro-1,3- benzothiazol- 6-yl]phenyl} carbamate [Example 540]	0.002 µM	
Cc1ncc(-c2cc3sc(C(C(=O)NCC(=O)NC4CC4)S(=O)(=O)C(C)C)nc3cc2C)cn1 (stereo not shown) [Example 212, N-[(cyclopropyl-carbamoyl)methyl]-2-[5-methyl-6-(2-methylpyrimidin-5-yl)-1,3-benzothiazol-2-yl]-2-(propane-2-sulfonyl) acetamide]	0.015 µM	
COc1cncc(-c2cc3sc(C(C(=O)NCC(=O)NC4CC4)S(C)(=O)=O)nc3cc2F)c1 (stereo not shown) [Example 324, N-[(cyclopropyl-carbamoyl)methyl]-2-[5-fluoro-6-(5-methoxypyridin-3-yl)-1,3-benzothiazol-2-yl]-2-methanesulfonyl-acetamide]	0.015 µM	
NC(=O)Nc1ccc(-c2cc3sc(C(C(=O)NCC(=O)NC4CC4)S(=O)(=O)CCC(F)(F)F)nc3cc2F)cc1 (stereo not shown) [Example 7, 2-{6-[4-(carbamoyl-amino)phenyl]-5-fluoro-1,3-benzothiazol-2-yl}-N-[(cyclopropyl-carbamoyl)methyl]-2-(3,3,3-trifluoropropane-sulfonyl) acetamide]	0.005 µM	
COCCS(=O)(=O)C(C(=O)NCC(=O)NC1CC1)c1nc2cc(OC)c(-c3cccnc3F)cc2s1 (stereo not shown) [Example 219, N-[(cyclopropyl-carbamoyl)methyl]-2-[6-(2-fluoropyridin-3-yl)-5-methoxy-1,3-benzothiazol-2-yl]-2-(2-methoxyethane-sulfonyl) acetamide]	0.039 µM	
CC(C)OC(=O)Nc1ccc(-c2cc3sc(C(C(=O)NCC(=O)NC4CC4)S(=O)(=O)C(C)C)nc3cc2F)cc1 (stereo not shown) [Example 541, propan-2-yl N-{4-[2-({[(cyclopropyl-carbamoyl)methyl]carbamoyl} (propane-2-sulfonyl)methyl)-5-fluoro-1,3-benzothiazol-6-yl]phenyl} carbamate]	0.002 µM	
COCCS(=O)(=O)C(C(=O)NCC(=O)NC1CC1)c1nc2cc(C(F)(F)F)c(-c3ccn(C)c(=O)c3)cc2s1 (stereo not shown) [Example 176, N-[(cyclopropyl-carbamoyl)methyl]-2-(2-methoxyethane-sulfonyl)-2-[6-(1-methyl-2-oxo-1,2-dihydropyridin-4-yl)-5-(trifluoromethyl)-1,3-benzothiazol-2-yl]acetamide]	0.037 µM	
COCCS(=O)(=O)C(C(=O)NCC(=O)NC1CC1)c1nc2cc(-c3cnnc(C)c3)c(F)cc2s1 (stereo not shown) [Example 351, N-[(cyclopropyl-carbamoyl)methyl]-2-[6-fluoro-5-(6-methylpyridazin-4-yl)-1,3-benzothiazol-2-yl]-2-(2-methoxyethane-sulfonyl)acetamide]	0.036 µM	
COCCS(=O)(=O)C(C(=O)NCC(=O)NC1CC1)c1nc2cc(F)c(-c3ccc(N(C)C(=O)OC)cc3)cc2s1 (stereo not shown) [Example 32, methyl N-{4-[2-({[(cyclopropyl-carbamoyl)methyl]carbamoyl}(2-methoxyethane-sulfonyl)methyl)-5-fluoro-1,3-benzothiazol-6-yl]phenyl}-N-methylcarbamate]	0.006 µM	
CS(=O)(=O)C(C(=O)NCC(=O)NC1CC1)c1nc2cc(-c3ccc4c(c3)NC(=O)C4)c(F)cc2s1 (stereo not shown) [Example 365, N-[(cyclopropyl-carbamoyl)methyl]-2-[6-fluoro-5-(2-oxo-2,3-dihydro-1H-indol-6-yl)-1,3-benzothiazol-2-yl]-2-methanesulfonyl-acetamide]	0.036 µM	
CC(C)n1cc(-c2cc3sc(C(C(=O)NCC(=O)NC4CC4)S(=O)(=O)C(C)C)nc3cc2F)ccc1=O (stereo not shown) [Example 22, N-[(cyclopropyl-carbamoyl)methyl]-2-{5-fluoro-6-[6-oxo-1-(propan-2-yl)-1,6-dihydropyridin-3-yl]-1,3-benzothiazol-2-yl}-2-(propane-2-sulfonyl) acetamide]	0.037 µM	
COCCS(=O)(=O)C(C(=O)NCC(=O)NC1CC1)c1nc2ccc(-c3ccc(-c4nnc(C)o4)cc3)cc2s1 (stereo not shown) [Example 101, N-[(cyclopropyl-carbamoyl)methyl]-2-(2-methoxyethane-sulfonyl)-2-{6-[4-(5-methyl-1,3,4-oxadiazol-2-yl)phenyl]-1,3-benzothiazol-2-yl} acetamide]	0.009 µM	
COCCS(=O)(=O)C(C(=O)NCC(=O)NC1CC1)c1nc2ccc(-c3ccc(COC)cc3)cc2s1 (stereo not shown) [Example 308, N-[(cyclopropyl-carbamoyl)methyl]-2-(2-methoxyethane-sulfonyl)-2-{6-[4-(methoxymethyl)phenyl]-1,3-benzothiazol-2-yl}acetamide]	0.027 µM	
COCCS(=O)(=O)C(C(=O)NCC(=O)NC1CC1)c1nc2cc(Cl)c(-c3ccn(C)c(=O)c3)cc2s1 (stereo not shown) [Example 108, 2-[5-chloro-6-(1-methyl-2-oxo-1,2-dihydropyridin-4-yl)-1,3-benzothiazol-2-yl]-N-[(cyclopropyl-carbamoyl)methyl]-2-(2-methoxyethane-sulfonyl)acetamide]	0.051 µM	
CC(=O)Nc1cccc(-c2ccc3nc(C(C(=O)NCC(=O)NC4CC4)S(=O)(=O)Cc4cccc(C#N)c4)sc3c2)c1 (stereo not shown) [Example 279]	0.089 µM	
C=CCS(=O)(=O)C(C(=O)NCC(=O)NC1CC1)c1nc2ccc(-c3ccc(F)nc3)cc2s1 (stereo not shown) [Example 59, N-[(cyclopropyl-carbamoyl)methyl]-2-[6-(6-fluoropyridin-3-yl)-1,3-benzothiazol-2-yl]-2-(prop-2-ene-1-sulfonyl) acetamide]	0.02 µM	
